# Measurements: patent US12241890B2, “Methods for generating barcoded nucleic acid molecules using fixed cells” (10X Genomics, Inc., priority 2019, dated 2025)
# “Also recorded” adds a separate entry of the source.
# Key:
# PFA-fixed PBMCs = experiment: Bulk un-fixing of PFA-fixed PBMCs, bulk RNA isolation and bulk RNA sequencing (Example 1); type: cell-based; conditions: 4% PFA-fixed PBMCs, 50 mM un-fixing agent, 0.2% SDS, 10 mU/mL Proteinase K, 40° C. 2 h; for complexity of the transcriptomic library relative to no treatment of the fixed PBMCs (FIG. 8): estimated with Preseq
# Method: Un-fixing agent solutions: the un-fixing agent of compounds (1), (4), (8), and (11) were each formulated in 30 mmol Tris buffer, pH 6.8 to a target concentration of 80 mM and the pH was adjusted to pH 6.5 using 2M NaOH. The final formulation was filtered through a 0.2 μm nylon syringe filter before addition into final composition of 50 mM of the un-fixing agent compound, 0.2% SDS, 10 mU/mL of Proteinase K and 0.2 U/mL RNAse inhibitor in 30 mM Tris, pH 6.8.
# Bulk Un-fixing: PBMCs were fixed with 4% PFA for 24 h at 4° C. and quenched with 10% Fetal Bovine Serum (“FBS”) in PBS. The PFA-fixed PBMCs were treated with an un-fixing agent solution of compounds (1), (4), (8), or (11) formulated as described above at 40° C. for 2 h. Three different control samples also were prepared without un-fixing agent added: (1) fresh PBMCs (“Fresh Pellet” control); (2) PBMCs fixed with 4% PFA for 24 h then treated with 0.2% SDS, 10 mU/mL Proteinase K, and 0.2 U/mL RNAse inhibitor in 30 mM Tris, pH 6.8 at 40° C. for 2 h (“Fixed+PK, No UF agt.” control); and (3) PBMCs fixed with 4% PFA for 24 h (“fixed no un-fixing agent” control).
# Bulk RNA isolation: After the bulk un-fixing treatment of the PFA-fixed PBMCs, the resulting treated (and control) samples were centrifuged at 450 g for 5 min and pellet as well as supernatant were collected. RNA isolation from collected pellets and supernatants was performed using RNeasy Plus Mini Kit (Qiagen, Cat #_74134) and RNeasy MinElute Cleanup Kit (Qiagen, Cat #74204), respectively. Isolated RNA was quantified using Qubit™ RNA HS Assay Kit (Invitrogen, Cat #Q32855) and Agilent RNA ScreenTape System (Agilent Technologies).
# Bulk RNA sequencing: RNA could not be isolated from the “fixed no un-fixing agent” control sample. […] The “Fresh Pellet” control data was obtained by sequencing following bulk RNA isolation using the Qiagen kit without performing the 10× Genomics Single Cell 3′V3 protocol described below. For the four un-fixing agent treated samples and the remaining control samples described above, cDNA amplification was performed using an equivalent of 10 ng RNA. Post cDNA amplification, library prep was performed according to the 10× Genomics Single Cell 3′V3 protocol (10× Genomics, Pleasanton, CA, USA). A 3000-cell load of fresh PBMCs was used as a single cell reference (“Fresh SC3P”) and library prep was performed using Single Cell 3′V3 protocol (10× Genomics, Pleasanton, CA, USA). The final libraries were sequenced to between 25 and 100 million reads on a NovaSeq 6000 sequencer (Illumina Inc., San Diego, CA, USA). Bulk library complexity was estimated using the software package Preseq, as described by Daley and Smith (see e.g., Daley and Smith, “Predicting the molecular complexity of sequencing libraries,” Nature Methods 10:325-327, 2013). Library complexity as used here refers to the estimated number of unique RNA molecules aligned properly to the transcriptome (i.e., reads considered to be informative and used for gene expression counting) as a function of all sequenced reads. Gene expression counts were down-sampled across libraries to match the lowest sequencing depth and pairwise gene expression correlations were computed as the Pearson correlation (R^2) of gene expression counts between samples. When comparing gene expression data from control, unfixed PBMCs, gene expression counts were summed across cells to produce pseudo-bulk gene expression counts, as is customary in commercial gene expression analysis software (e.g., 10× Genomics, Pleasanton, CA, USA).
# PFA-fixed Jurkats = experiment: Bulk un-fixing of PFA-fixed Jurkats with proline analog un-fixing agents and cold-active protease, RNA yield (Example 10); type: cell-based; conditions: 4% PFA-fixed Jurkats; 100 mM un-fixing agent, 10 U/mL ArcticZymes Proteinase where present; 14-25° C. 90 min then 80° C. 15 min
# Method: B. Un-fixing agent stock solutions: the proline analog un-fixing agents of compounds (12), (13), (14), and (15) were each formulated in 50 mmol Tris buffer, pH 8.3 to a target concentration of 300 mM and the pH was adjusted to pH 8.3 using 2M NaOH. The final formulation was filtered through a 0.2 μm nylon syringe filter before addition into final composition of 100 mM of the un-fixing agent compound, 10 U/mL ArcticZymes Proteinase and 0.2 U/mL RNAse inhibitor in 50 mM Tris, pH 8.3.
# C. Protease stock solution: A stock solution of 10 U/mL of the cold-active protease, ArcticZymes Proteinase (ArcticZymes Technologies ASA, Tromso, Norway) was stored at −20° C.
# D. Bulk un-fixing/protease treatment of fixed cells: Jurkats were fixed with 4% PFA for 24 h at 4° C. and quenched with 10% Fetal Bovine Serum (“FBS”) in PBS. RNAse inhibitor was added to the fixed cell solution together with 10 U/mL of the cold-active protease, ArcticZymes Proteinase, 1 mM of the protease inhibitor, and 100 mM of one of each of the tested un-fixing agents: compound (8), (12), (13), (14), or (15). […]
# E. Bulk RNA isolation: After the bulk un-fixing treatment of the PFA-fixed Jurkats, the resulting samples were centrifuged 5 minutes at 500 g, 4° C., and the supernatant and pellet fractions were collected separately. […] Isolated RNA was quantified using Qubit™ RNA HS Assay Kit (Invitrogen, Cat #Q32855).
# [1] = tested on: RNA treated with formaldehyde; conditions: Karmakar et al., Nature Chemistry 7: 752-758 (2015); cited from earlier work
Molecule,RNA recovery per read sequenced relative to fixed PBMCs treated only with proteinase K and SDS (PFA-fixed PBMCs),transcriptomic mapping relative to fixed PBMC samples not treated with an un-fixing agent (FIG. 7) (PFA-fixed PBMCs),complexity of the transcriptomic library relative to no treatment of the fixed PBMCs (FIG. 8) (PFA-fixed PBMCs),recovery of RNA from the fixed biological sample (PFA-fixed PBMCs),Pellet Avg. RNA yield (PFA-fixed Jurkats) [ng],Supernatant Avg. RNA yield (PFA-fixed Jurkats) [ng],breakdown of aminal and hemi-aminal adducts in RNA treated with formaldehyde [1]
"Cc1ccc(N)c(S(=O)(=O)O)c1 [(4), 2-amino-5-methylbenzenesulfonic acid]",increased RNA recovery per read sequenced,increased the transcriptomic mapping,higher complexity of the transcriptomic library,,,,
"Cc1ccc(N)c(C(=O)O)c1 [Compound (1), 2-amino-5-methylbenzoic acid]",increased RNA recovery per read sequenced,increased the transcriptomic mapping,higher complexity of the transcriptomic library,highest recovery of RNA,,,
"Nc1ccncc1P(=O)(O)O [Compound (8), (4-aminopyridin-3-yl)phosphonic acid]",,decreased the transcriptomic mapping,higher complexity of the transcriptomic library; also recorded: highest library complexity,,54,200,
"Cc1ccc(N)c(P(=O)(O)O)c1 [(3), (2-amino-5-methylphenyl)phosphonic acid]",,,,,,,catalytically break down the aminal and hemi-aminal adducts
(2-amino-5-{[2-(2-poly-ethoxy)ethyl]carbamoyl} phenyl)phosphonic acid [(11)],,decreased the transcriptomic mapping,,,,,
